Assays:
THP-1 cells = assay: Cell growth inhibition assay (CellTiter-Glo), THP-1; type: cell-based, human; details: THP-1, 4 days; for GI50: Homo sapiens, 96 h, half-maximal growth inhibition; for THP-1 TGI: total growth inhibition
In short: (§1)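 Leukemia cells were exposed for 4 days at 37 °C to 3-fold dilution series from 10 μM (0.1% DMSO), then viable cells were quantified by CellTiter-Glo ATP luminescence. Signal was corrected for background and a day-0 plate, with vehicle set at 100% and medium-only at −100%. IC50 and TGI were obtained by four-parameter fit.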

K-562 cells = assay: Cell growth inhibition assay (CellTiter-Glo), K-562; type: cell-based, human; details: K-562, 4 days; for GI50: Homo sapiens, K562, 96 h, half-maximal growth inhibition; for K-562 TGI: total growth inhibition
In short: as §1

MV-4-11 cells = assay: Cell growth inhibition assay (CellTiter-Glo), MV-4-11; type: cell-based, human; details: MV-4-11, 4 days; for GI50: Homo sapiens, MV4-11, 96 h, half-maximal growth inhibition; for MV-4-11 TGI: total growth inhibition
In short: as §1

[1] = molecular target: CREBBP bromodomain (His-CREBBP(1081-1197)) (Homo sapiens (Human), UniProt Q92793); assay: AlphaScreen in-vitro binding assay for CREBBP; details: AlphaScreen, acetyl-histone H4 peptide; read-out: CREBBP IC50
CREBBP bromodomain (His-CREBBP(1081-1197)), sequence (Q92793 1081-1197): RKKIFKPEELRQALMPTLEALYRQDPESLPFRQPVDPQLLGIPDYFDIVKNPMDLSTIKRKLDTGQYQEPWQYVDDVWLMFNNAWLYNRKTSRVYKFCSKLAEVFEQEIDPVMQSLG

SMILES | GI50 (THP-1 cells) [nM] | THP-1 TGI (THP-1 cells) [nM] | GI50 (K-562 cells) [nM] | K-562 TGI (K-562 cells) [nM] | GI50 (MV-4-11 cells) [nM] | MV-4-11 TGI (MV-4-11 cells) [nM] | IC50 [1] [nM]
Cc1cc(N2C(=O)c3c(C4CC4)nn(C)c3C2c2ccc(Cl)cc2)cn2c(C)nnc12 (stereo not shown) [Example 1, 6-(4-chlorophenyl)-3-cyclopropyl-5-(3,8-dimethyl-[1,2,4]triazolo[4,3-a]pyridin-6-yl)-1-methyl-5,6-dihydropyrrolo[3,4-c]pyrazol-4(1H)-one] | 9.6 | 20.4 | 51.9 | >10000 | 5.42 | 10.7 | 11400
Cc1nnc2c(NC(=O)OC(C)(C)C)cc(N3C(=O)c4c(C5CC5)nn(C)c4C3c3ccc(Cl)cc3)cn12 (stereo not shown) [Example 27, tert-butyl (6-(6-(4-chlorophenyl)-3-cyclopropyl-1-methyl-4-oxopyrrolo[3,4-c]pyrazol-5(1H,4H,6H)-yl)-3-methyl-[1,2,4]triazolo[4,3-a]pyridin-8-yl)carbamate] | 22.8 | 44.65 | 164 | >10000 | 11.1 | 22.6 | 8100
COc1cc(N2C(=O)c3c(C4CC4)nn(C)c3C2c2ccc(Cl)cc2)cc2c1nnn2C (stereo not shown) [Example 6] | 63 | 118.1 | 204 | >10000 | 44.5 | 90.25 | 21600
COCCn1nc(C2CC2)c2c1C(c1ccc(Cl)cc1)N(c1cc(C)c3nnc(C)n3c1)C2=O (racemic) [Example 4, 6-(4-chlorophenyl)-3-cyclopropyl-5-(3,8-dimethyl-[1,2,4]triazolo[4,3-a]pyridin-6-yl)-1-(2-methoxyethyl)-5,6-dihydropyrrolo[3,4-c]pyrazol-4(1H)-one] | 11.9 | 27.95 | 56.8 | >10000 | 9.36 | 20.8 | 7300
COCCn1nc(C2CC2)c2c1C(c1ccc(Cl)cc1)N(c1cc(C)c3nnc(CF)n3c1)C2=O (stereo not shown) [Example 18, 6-(4-chlorophenyl)-3-cyclopropyl-5-(3-(fluoromethyl)-8-methyl-[1,2,4]triazolo[4,3-a]-pyridin-6-yl)-1-(2-methoxyethyl)-5,6-dihydropyrrolo[3,4-c]pyrazol-4(1H)-one] | 19.2 | 46.45 | 139 | >10000 | 6.73 | 13.25 | > 37000
CCOC(=O)Nc1cc(N2C(=O)c3c(C4CC4)nn(C)c3C2c2ccc(Cl)cc2)cn2c(C)nnc12 (stereo not shown) [Example 29, ethyl (6-(6-(4-chlorophenyl)-3-cyclopropyl-1-methyl-4-oxopyrrolo[3,4-c]pyrazol-5-(1H,4H,6H)-yl)-3-methyl-[1,2,4]triazolo[4,3-a]pyridin-8-yl)carbamate] | 2.59 | 7.62 | 23.6 | >10000 | 1.13 | 1.97 | –
COc1cc(N2C(=O)c3c(C4CC4)nn(C)c3C2c2ccc(Cl)cc2)cn2c(C)nnc12 (racemic) [Example 5, 6-(4-chlorophenyl)-3-cyclopropyl-5-(8-methoxy-3-methyl-[1,2,4]triazolo[4,3-a]pyridin-6-yl)-1-methyl-5,6-dihydropyrrolo[3,4-c]pyrazol-4(1H)-one] | 81.4 | 147.5 | 373 | >10000 | 64.9 | 104 | > 37000
Cc1cc(N2C(=O)c3c(C4CC4)nn(C)c3[C@H]2c2ccc(Cl)cc2)cn2c(C(F)F)nnc12 [Example 7, (R)-6-(4-chlorophenyl)-3-cyclopropyl-5-(3-(difluoromethyl)-8-methyl-[1,2,4]triazolo-[4,3-a]pyridin-6-yl)-1-methyl-5,6-dihydropyrrolo[3,4-c]pyrazol-4(1H)-one] | 5.65 | 14.8 | 46.3 | >10000 | 2.45 | 6.275 | > 37000
Cc1cc(N2C(=O)c3c(C4CC4)nn(C)c3C2c2ccc(Cl)cc2)cn2c(C(F)F)nnc12 (racemic) [Example 3, 6-(4-chlorophenyl)-3-cyclopropyl-5-(3-(difluoromethyl)-8-methyl-[1,2,4]triazolo[4,3-a]pyridin-6-yl)-1-methyl-5,6-dihydropyrrolo[3,4-c]pyrazol-4(1H)-one] | 12.4 | 29.45 | 73.5 | >10000 | 9.49 | 23.45 | > 37000
Cc1cc(N2C(=O)c3c(C4CC4)nn(C)c3C2c2ccc(Cl)cc2)cn2c(CF)nnc12 (racemic) [Example 16, 6-(4-chlorophenyl)-3-cyclopropyl-5-(3-(fluoromethyl)-8-methyl-[1,2,4]triazolo[4,3-a]-pyridin-6-yl)-1-methyl-5,6-dihydropyrrolo[3,4-c]pyrazol-4(1H)-one] | 18.7 | 51.6 | 122 | >10000 | 6.07 | 11.3 | > 37000
Cc1cc(N2C(=O)c3c(C4CC4)nn(C)c3[C@H]2c2ccc(Cl)cc2)cn2c(C)nnc12 [Example 2, (R)-6-(4-chlorophenyl)-3-cyclopropyl-5-(3,8-dimethyl-[1,2,4]triazolo[4,3-a]pyridin-6-yl)-1-methyl-5,6-dihydropyrrolo[3,4-c]pyrazol-4(1H)-one] | 6.37 | 14.95 | 29.2 | >10000 | 4.31 | 11.21 | 6000
